How the values were obtained:
barnyardgrass [1] = experiment: Test B pre-/postemergence herbicide test; type: in vivo, Echinochloa crus-galli
In short: (§1)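 Plants compared with untreated controls 13–15 days post-treatment and given a visual 0–100 injury score. Applications: preemergence to seeds; postemergence at 1- to 4-leaf (2–18 cm); paddy species flooded, 2-leaf stage. Vehicle non-phytotoxic, surfactant included.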

Surinam grass = experiment: Test B pre-/postemergence herbicide test; type: in vivo, Urochloa decumbens; conditions: for Surinam Grass plant response rating: postemergence, visual rating
In short: as §1

cocklebur = experiment: Test B pre-/postemergence herbicide test; type: in vivo, Xanthium strumarium
In short: as §1

corn = experiment: Test B pre-/postemergence herbicide test; type: in vivo, Zea mays
In short: as §1

large crabgrass = experiment: Test B pre-/postemergence herbicide test; type: in vivo, Digitaria sanguinalis
In short: as §1

giant foxtail = experiment: Test B pre-/postemergence herbicide test; type: in vivo, Setaria faberi
In short: as §1

lambsquarters = experiment: Test B pre-/postemergence herbicide test; type: in vivo, Chenopodium album; conditions: for Lambsquarters plant response rating: postemergence, visual rating
In short: as §1

morningglory = experiment: Test B pre-/postemergence herbicide test; type: in vivo, Ipomoea coccinea; conditions: for Morningglory plant response rating: postemergence, visual rating
In short: as §1

pigweed = experiment: Test B pre-/postemergence herbicide test; type: in vivo, Amaranthus retroflexus; conditions: for Pigweed plant response rating: postemergence, visual rating
In short: as §1

blackgrass = experiment: Test B postemergence herbicide test; type: in vivo, Alopecurus myosuroides; conditions: scale 0 (no effect) to 100 (complete control); for Plant response rating, Blackgrass: Postemergence, 500 g ai/ha, visual rating after 13 to 15 days; for Blackgrass plant response rating: postemergence, 125 g ai/ha, visual rating
In short: (§2)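 Formulated test chemicals went onto postemergence plants measuring 2 to 18 cm, at one to four leaves. For the paddy assay, species had reached two leaves. Scoring took place 13–15 days later by eye, relative to untreated plants, using 0 for no effect up to 100 for full control.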

wheat = experiment: Test B postemergence herbicide test; type: in vivo, Triticum aestivum; design: key to Wheat plant response rating: 0 = no effect, 100 = complete control; conditions: scale 0 (no effect) to 100 (complete control); for Plant response rating, Wheat: Postemergence, 500 g ai/ha, visual rating after 13 to 15 days; for Wheat plant response rating: postemergence, 125 g ai/ha, visual rating
In short: (§3)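 Plants grow to 1- to 4-leaf stage (2–18 cm) for postemergence spraying, or to 2-leaf stage for the paddy test. Formulated compound is applied. Greenhouse holding lasts 13–15 days. Response is scored visually relative to controls, 0 no effect to 100 complete control; a dash means no result.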

wild oat = experiment: Test B postemergence herbicide test; type: in vivo, Avena fatua; conditions: scale 0 (no effect) to 100 (complete control); for Plant response rating, Oat, Wild: Postemergence, 500 g ai/ha, visual rating after 13 to 15 days; for Oat, Wild plant response rating: postemergence, 125 g ai/ha, visual rating
In short: as §3

rice = experiment: Test B flooded paddy test; type: in vivo, Oryza sativa; conditions: 1000 g ai/ha, visual rating, scale 0 to 100 (0 no effect, 100 complete control), 13 to 15 days
In short: as §2

[2] = system: small flower umbrella sedge; experiment: Test B flooded paddy test; type: in vivo, Cyperus difformis; conditions: 1000 g ai/ha, visual rating, scale 0 to 100 (0 no effect, 100 complete control), 13 to 15 days
In short: as §2

ducksalad = experiment: Test B flooded paddy test; type: in vivo, Heteranthera limosa; conditions: 1000 g ai/ha, visual rating, scale 0 to 100 (0 no effect, 100 complete control), 13 to 15 days
In short: as §2

barnyardgrass [3] = experiment: Test B flooded paddy test; type: in vivo, Echinochloa crus-galli; conditions: 1000 g ai/ha, visual rating, scale 0 to 100 (0 no effect, 100 complete control), 13 to 15 days
In short: as §2

[4] = Postemergence, 500 g ai/ha, visual rating after 13 to 15 days, scale 0 (no effect) to 100 (complete control)
[5] = Preemergence, 500 g ai/ha, scale 0 to 100
[6] = postemergence, 125 g ai/ha, visual rating, scale 0 (no effect) to 100 (complete control)
[7] = preemergence, 125 g ai/ha, 0 to 100 scale, 0 is no effect, 100 is complete control
[8] = 125 g ai/ha, scale 0 (no effect) to 100 (complete control)
[9] = 500 g ai/ha, visual rating 0-100, 0 no effect, 100 complete control, preemergence

SMILES: CCOC(=O)c1cccc(NC(=O)c2cc(C(C)(C)C)nn2CC)c1C [Compound 88]
- Plant response rating, Barnyardgrass (barnyardgrass [1]; [4]): 60
- Barnyardgrass plant response rating (barnyardgrass [1]; [5]): 90
- Barnyardgrass plant response rating (barnyardgrass [1]; [6]): 30
- Plant response rating, Barnyardgrass (barnyardgrass [1]; [7]): 70
- Plant response rating, Surinam Grass (Surinam grass; [4]): 0
- Surinam Grass plant response rating (Surinam grass; [8]): 0
- Plant response rating, Surinam Grass (Surinam grass; [7]): 20
- Plant response rating, Cocklebur (cocklebur; [4]): 50
- Cocklebur plant response rating (cocklebur; [5]): 0
- Cocklebur plant response rating (cocklebur; [6]): 10
- Plant response rating, Cocklebur (cocklebur; [7]): 0
- Plant response rating, Corn (corn; [4]): 70
- Corn plant response rating (corn; [5]): 60
- Corn plant response rating (corn; [6]): 10
- Plant response rating, Corn (corn; [7]): 0
- Plant response rating, Crabgrass, Large (large crabgrass; [4]): 60
- Crabgrass, Large plant response rating (large crabgrass; [5]): 100
- Crabgrass, Large plant response rating (large crabgrass; [6]): 30
- Plant response rating, Crabgrass, Large (large crabgrass; [7]): 90
- Plant response rating, Foxtail, Giant (giant foxtail; [4]): 40
- Foxtail, Giant plant response rating (giant foxtail; [5]): 90
- Foxtail, Giant plant response rating (giant foxtail; [6]): 30
- Plant response rating, Foxtail, Giant (giant foxtail; [7]): 70
- Plant response rating, Lambsquarters (lambsquarters; [4]): 100
- Lambsquarters plant response rating (lambsquarters; [8]): 70
- Plant response rating, Lambsquarters (lambsquarters; [7]): 100
- Plant response rating, Morningglory (morningglory; [4]): 0
- Morningglory plant response rating (morningglory; [8]): 0
- Plant response rating, Morningglory (morningglory; [7]): 0
- Plant response rating, Pigweed (pigweed; [4]): 60
- Pigweed plant response rating (pigweed; [8]): 50
- Plant response rating, Pigweed (pigweed; [7]): 100
- Plant response rating, Blackgrass (blackgrass): 0
- Blackgrass plant response rating (blackgrass): 0
- Plant response rating, Wheat (wheat): 0
- Wheat plant response rating (wheat): 0
- Plant response rating, Oat, Wild (wild oat): 0
- Oat, Wild plant response rating (wild oat): 0
- Rice plant response rating (rice): 40
- Sedge, Umbrella plant response rating [2]: 80
- Ducksalad plant response rating (ducksalad): 80
- Barnyardgrass plant response rating (barnyardgrass [3]): 70

SMILES: CCOC(=O)c1cc(NC(=O)c2cc(C(C)(C)C)nn2CC)ccc1OC [Compound 96]
- Plant response rating, Barnyardgrass (barnyardgrass [1]; [9]): 90
- Plant response rating, Barnyardgrass (barnyardgrass [1]; [4]): 50
- Barnyardgrass plant response rating (barnyardgrass [1]; [6]): 0
- Plant response rating, Barnyardgrass (barnyardgrass [1]; [7]): 70
- Plant response rating, Surinam Grass (Surinam grass; [9]): 80
- Plant response rating, Surinam Grass (Surinam grass; [4]): 30
- Surinam Grass plant response rating (Surinam grass; [8]): 20
- Plant response rating, Surinam Grass (Surinam grass; [7]): 20
- Plant response rating, Cocklebur (cocklebur; [9]): 0
- Plant response rating, Cocklebur (cocklebur; [4]): 100
- Cocklebur plant response rating (cocklebur; [6]): 90
- Plant response rating, Cocklebur (cocklebur; [7]): 0
- Plant response rating, Corn (corn; [9]): 70
- Plant response rating, Corn (corn; [4]): 20
- Corn plant response rating (corn; [6]): 10
- Plant response rating, Corn (corn; [7]): 40
- Plant response rating, Crabgrass, Large (large crabgrass; [9]): 100
- Plant response rating, Crabgrass, Large (large crabgrass; [4]): 50
- Crabgrass, Large plant response rating (large crabgrass; [6]): 40
- Plant response rating, Crabgrass, Large (large crabgrass; [7]): 20
- Plant response rating, Foxtail, Giant (giant foxtail; [9]): 90
- Plant response rating, Foxtail, Giant (giant foxtail; [4]): 50
- Foxtail, Giant plant response rating (giant foxtail; [6]): 30
- Plant response rating, Foxtail, Giant (giant foxtail; [7]): 60
- Plant response rating, Lambsquarters (lambsquarters; [9]): 100
- Plant response rating, Lambsquarters (lambsquarters; [4]): 100
- Lambsquarters plant response rating (lambsquarters; [8]): 100
- Plant response rating, Lambsquarters (lambsquarters; [7]): 100
- Plant response rating, Morningglory (morningglory; [9]): 10
- Plant response rating, Morningglory (morningglory; [4]): 0
- Morningglory plant response rating (morningglory; [8]): 0
- Plant response rating, Morningglory (morningglory; [7]): 0
- Plant response rating, Pigweed (pigweed; [9]): 100
- Plant response rating, Pigweed (pigweed; [4]): 100
- Pigweed plant response rating (pigweed; [8]): 70
- Plant response rating, Pigweed (pigweed; [7]): 100
- Plant response rating, Blackgrass (blackgrass): 20
- Blackgrass plant response rating (blackgrass): 0
- Plant response rating, Wheat (wheat): 20
- Wheat plant response rating (wheat): 10
- Plant response rating, Oat, Wild (wild oat): 20
- Oat, Wild plant response rating (wild oat): 20
- Rice plant response rating (rice): 70
- Sedge, Umbrella plant response rating [2]: 90
- Ducksalad plant response rating (ducksalad): 90
- Barnyardgrass plant response rating (barnyardgrass [3]): 80

SMILES: C=Cn1nc(C(C)(C)C)cc1C(=O)Nc1cccc(C(C)=NO)c1 [Compound 114]
- Plant response rating, Barnyardgrass (barnyardgrass [1]; [9]): 80
- Plant response rating, Barnyardgrass (barnyardgrass [1]; [4]): 30
- Barnyardgrass plant response rating (barnyardgrass [1]; [6]): 20
- Plant response rating, Barnyardgrass (barnyardgrass [1]; [7]): 50
- Plant response rating, Surinam Grass (Surinam grass; [9]): 30
- Plant response rating, Surinam Grass (Surinam grass; [4]): 20
- Surinam Grass plant response rating (Surinam grass; [8]): 10
- Plant response rating, Surinam Grass (Surinam grass; [7]): 20
- Plant response rating, Cocklebur (cocklebur; [9]): 10
- Plant response rating, Cocklebur (cocklebur; [4]): 90
- Cocklebur plant response rating (cocklebur; [6]): 80
- Plant response rating, Cocklebur (cocklebur; [7]): 10
- Plant response rating, Corn (corn; [9]): 10
- Plant response rating, Corn (corn; [7]): 0
- Plant response rating, Crabgrass, Large (large crabgrass; [9]): 100
- Plant response rating, Crabgrass, Large (large crabgrass; [4]): 40
- Crabgrass, Large plant response rating (large crabgrass; [6]): 30
- Plant response rating, Crabgrass, Large (large crabgrass; [7]): 90
- Plant response rating, Foxtail, Giant (giant foxtail; [9]): 90
- Plant response rating, Foxtail, Giant (giant foxtail; [4]): 30
- Foxtail, Giant plant response rating (giant foxtail; [6]): 30
- Plant response rating, Foxtail, Giant (giant foxtail; [7]): 50
- Plant response rating, Lambsquarters (lambsquarters; [9]): 100
- Plant response rating, Lambsquarters (lambsquarters; [4]): 90
- Lambsquarters plant response rating (lambsquarters; [8]): 80
- Plant response rating, Lambsquarters (lambsquarters; [7]): 100
- Plant response rating, Morningglory (morningglory; [7]): 10
- Plant response rating, Pigweed (pigweed; [9]): 100
- Plant response rating, Pigweed (pigweed; [4]): 100
- Pigweed plant response rating (pigweed; [8]): 90
- Plant response rating, Pigweed (pigweed; [7]): 80
- Plant response rating, Blackgrass (blackgrass): 30
- Blackgrass plant response rating (blackgrass): 10
- Plant response rating, Wheat (wheat): 20
- Wheat plant response rating (wheat): 20
- Plant response rating, Oat, Wild (wild oat): 10
- Oat, Wild plant response rating (wild oat): 10
- Rice plant response rating (rice): 50
- Sedge, Umbrella plant response rating [2]: 90
- Ducksalad plant response rating (ducksalad): 80
- Barnyardgrass plant response rating (barnyardgrass [3]): 70

Source: patent US20060069132A1, “Azolecarboxamide herbicides” (priority 2004, published 2006)
